Measurements taken from patent US20140370177A1, “COMPOSITIONS” (Givaudan S.A., priority 2011, published 2014).

Tests used:
Format in all cases: in vivo, human
[1] = test system: sweet sensitive panelists; experiment: Ranking test in water, sucrose iso-intensity, formal sensory panel (R-index); conditions: for More Sweet Sample / R-index: in water
Method: (§1) The sensory evaluation was conducted using a ranking method. Samples at ambient temperature were randomly presented in 20 ml blind aliquots (unidentifiable by panelists). Panels consisted of 20 sweet sensitive subjects and samples were presented in 2 replications over 1 session. After tasting each sample, the mouth was rinsed thoroughly with water at ambient temperature prior to tasting the next sample. Panelists were presented with 0.5%, 1.0%, and 1.5% sucrose solutions in water and two samples of stevioside/rebaudioside A at 30 and 45 ppm in water, respectively. Subjects were asked to rank the samples from low to high with respect to perceived sweet taste. R-indices were calculated for 30 and 45 ppm stevioside/rebaudioside A samples versus either 0.5%, 1.0% or 1.5% sucrose.
The sensory evaluation was conducted using the same method as described in Example 4. Panels consisted of 20 sweet sensitive subjects and samples were presented in 2 replications over 1 session. Panelists were presented with 20 mL of 0.5%, 1.0%, and 1.5% sucrose solutions in water and two samples of stevioside/rebaudioside A (3:1) at 35 and 40 ppm in water, respectively. Subjects were asked to rank the samples from low to high with respect to perceived sweet taste. R-indices were calculated for 35 and 40 ppm stevioside/rebaudioside A samples versus either 0.5%, 1.0% or 1.5% sucrose.
Two ounces of each sample was presented in random order to 20 sweet sensitive panelists. In two replications (over 1 session), Panelists were asked to rank the samples from least sweet to most sweet. The data were subjected to an R-index analysis.

[2] = test system: sweet sensitive panelists; experiment: Iso-intensity in 5% sucrose solution (sweetness enhancement), formal sensory panel (R-index)
Method: as §1
The sensory evaluation was conducted using the same method as described in Example 4. Panels consisted of 20 sweet sensitive subjects and samples were presented in 2 replications over 1 session. Panelists were presented with 20 mL of 5.5%, 6.0%, 6.5%, 7.0%, 8.0% sucrose solutions and one sample of 35 ppm stevioside/rebaudioside A in 5.0% sucrose, respectively. Subjects were asked to rank the samples from low to high with respect to perceived sweet taste. R-indices were calculated for 35 ppm stevioside/rebaudioside A in 5.0% sucrose sample versus either 6.0%, 6.5%, 7.0% or 8.0% sucrose.
The objective of this test was to determine the extent to which stevioside enhances sweetness perception of a 5% sucrose solution.
This example examined the effect of 30 ppm rebaudioside A on top of 5% sucrose.

[3] = test system: experienced tasters; experiment: Comparison of upfront sweetness on top of 5% sucrose solution, 5 experienced tasters
Method: Two mixtures, stevioside/rebaudioside A (3:1) and (2:1) were evaluated for their upfront sweetness in comparison with pure stevioside and rebaudioside A. Sensory evaluation was carried out with 5 experienced tasters. 30 ppm of stevioside/rebaudioside A (3:1), (2:1), and Rebaudioside A on top of 5% sucrose solution were prepared along with 20, 35, 45, 75 ppm stevioside in 5% sucrose solutions. Samples were prepared fresh and at room temperature and were paired and tasted with water rinsing in-between.

[4] = 30 ppm Stevioside vs. 0.5% sucrose
[5] = 30 ppm Stevioside vs. 1.0% sucrose
[6] = 30 ppm Stevioside vs. 1.5% sucrose
[7] = 30 ppm Stevioside vs. 40 ppm Stevioside
[8] = 40 ppm Stevioside vs. 0.5% sucrose
[9] = 40 ppm Stevioside vs. 1.0% sucrose
[10] = 40 ppm Stevioside vs. 1.5% sucrose
[11] = 5% sucrose + 35 ppm Stevioside vs. 5.0% sucrose
[12] = 5% sucrose + 35 ppm Stevioside vs. 6.0% sucrose
[13] = 5% sucrose + 35 ppm Stevioside vs. 7.0% sucrose
[14] = 5% sucrose + 30 ppm RebA vs. 5% sucrose
[15] = 5% sucrose + 30 ppm RebA vs. 6% sucrose
[16] = 5% sucrose + 30 ppm RebA vs. 7% sucrose

## C=C1C[C@@]23CC[C@H]4[C@@](C)(CCC[C@@]4(C)C(=O)O[C@@H]4O[C@H](CO)[C@@H](O)[C@H](O)[C@H]4O)[C@@H]2CC[C@]1(O[C@@H]1O[C@H](CO)[C@@H](O)[C@H](O)[C@H]1O[C@@H]1O[C@H](CO)[C@@H](O)[C@H](O)[C@H]1O)C3 [Stevioside, stevioside]
[1]; [4]
  More Sweet Sample: 30 ppm
  R-index: 25.625
[1]; [5]
  More Sweet Sample: 1.0% sucrose
  R-index: 66.938
[1]; [6]
  More Sweet Sample: 1.5% sucrose
  R-index: 94.750
[1]; [7]
  More Sweet Sample: 40 ppm
  R-index: 80.188
[1]; 30 ppm in water
  Sucrose equivalence of sweetness by interpolation: 0.75 % sucrose
[1]; 35 ppm in water
  Isosweet sucrose concentration determined from 30 and 40 ppm data: 1.0 % sucrose
[1]; [8]
  More Sweet Sample: 40 ppm
  R-index: 11.375
[1]; [9]
  More Sweet Sample: 40 ppm
  R-index: 29.094
[1]; [10]
  More Sweet Sample: 1.5% sucrose
  R-index: 82.219
[1]; 40 ppm in water
  Sucrose equivalence of sweetness by interpolation: 1.25 % sucrose
[2]; [11]
  More Sweet Sample: 5% sucrose +
  R-index: 8.281
[2]; [12]
  More Sweet Sample: 5% sucrose +
  R-index: 21.094
[2]; [13]
  More Sweet Sample: 7.0% sucrose
  R-index: 78.125
[2]; 35 ppm in 5% sucrose
  Iso-sweet sucrose concentration by interpolation: 6.5 % sucrose
[2]; 35 ppm on top of 5% sucrose
  Additional sucrose equivalence (sweetness enhancing effect): 0.5 % sucrose equivalence
[3]; 20, 35, 45, 75 ppm in 5% sucrose solutions
  Description of upfront sweetness: delayed onset and lack of the upfront sweetness
[3]; 75 ppm in 5% sucrose solution
  Ranking of sweetness: ranked as the sweetest but not the most upfront one

## C=C1C[C@@]23CC[C@H]4[C@@](C)(CCC[C@@]4(C)C(=O)O[C@@H]4O[C@H](CO)[C@@H](O)[C@H](O)[C@H]4O)[C@@H]2CC[C@]1(O[C@@H]1O[C@H](CO)[C@@H](O)[C@H](O[C@@H]2O[C@H](CO)[C@@H](O)[C@H](O)[C@H]2O)[C@H]1O[C@@H]1O[C@H](CO)[C@@H](O)[C@H](O)[C@H]1O)C3 [rebaudioside A]
[1]; 30 ppm, iso-intensity study
  Iso-intense sucrose concentration: 1 % sucrose
[2]; [14]
  More Sweet Sample: 5% sucrose +
  R-index: 1.313
[2]; [15]
  More Sweet Sample: 5% sucrose +
  R-index: 22.625
[2]; [16]
  More Sweet Sample: 7% sucrose
  R-index: 89.000
[2]; 30 ppm in 5% sucrose
  Isosweet sucrose concentration by interpolation: 6.5 % sucrose
[2]; 30 ppm on top of 5% sucrose
  Sucrose equivalence in enhancement: 0.5 % sucrose equivalence
